# From patent US20260132103A1, “Bumetanide Derivatives for the Therapy of Stroke and Other Neurological Diseases/Disorders Involving NKCCs” (University of Pittsburgh - Of the Commonwealth System of …, priority 2018, published 2026)
# Experiments:
# [1] = tested on: transient focal cerebral ischemia (tMCAO) in mice; assay: Brain infarct volume and swelling after transient focal cerebral ischemia (tMCAO); format: in vivo, mouse; conditions: 24 h reperfusion, i.p.
# Protocol: (§1) FIGS. 1A-1C: Efficacy of NKCC1 inhibitors in reducing ischemic infarction, cerebral edema, and the post-stroke survival in normotensive mice after tMCAO (see Example 3). (1A) Experimental protocol and data collection. Transient middle cerebral artery occlusion (tMCAO) was induced in normal C57/b6 mice. DMSO, BMT (10 mg/kg body weight), STS5 (13 mg/kg) or STS66 (12 mg/kg) was administered via intraperitoneal injection (i.p.) as described in method. (1 B) Representative TTC staining images in normotensive mice at 24 h reperfusion with quantitative analysis of infarct volume. Data are mean±SD, n=6-13 (male, n=3-9; female, n=3-4, *p<0.05). Scale: 5 mm. (1C) Percentage hemisphere swelling at 24 h reperfusion. Data are mean±SD, n=6-13, *p<0.05. (1D) Body weight change during 1-14 days after tMCAO. Data are mean±SD, n=5-9 (male, n=4; female, n=2, *p<0.05). (1E) Survival curve during 1-14 day after tMCAO. Data are mean±SD, n=5-9 (male, n=3-7; female, n=2, *p<0.05).
# (§2) Transient focal cerebral ischemia was induced in mice by intraluminal occlusion of the left middle cerebral artery (MCA) for 50 min as described previously (Chen H et al., 2005). Mice were anesthetized with 3% isoflurane in 70%: 30% N2O/O2 until they were unresponsive to the tail pinch test. Animals were then fitted with a nose cone blowing 1.5% isoflurane for anesthesia maintenance. The left common carotid artery was exposed and the occipital artery branches of the external carotid artery were isolated and coagulated. The internal carotid artery was isolated and the extracranial branch was dissected and ligated. A rubber silicon-coated monofilament suture (6-0) was introduced into the internal carotid artery lumen and gently advanced approximately 8-9 mm to block the MCA blood flow for 50 min. The rectal temperature was maintained at 37.0±0.5° C. during surgery through a temperature-controlled heating pad. Achievement of ischemia was confirmed by monitoring regional cerebral blood flow (rCBF) with laser speckle contrast imager (Pericam). For reperfusion, the suture was withdrawn after the MCAO. The incision was closed and the mouse recovered under a heating lamp to maintain the core temperature (36.0-37.0° C.) during the 30-60 min recovery period. After recovery, animals were returned to their cages with free access to food and water.
# (§3) Vehicle: DMSO (2 ml/kg body weight/day), the NKCC1 inhibitor bumetanide (BMT, 10 mg/kg body weight/day in DMSO), bumetanide's prodrug STS5 (13 mg/kg body weight/day in DMSO), or the novel NKCC1 inhibitor STS66 according to the invention (12 mg/kg body weight/day in DMSO) was administered via intraperitoneal injection (i.p). The initial half dose of the drugs (BMT, STS5, STS66) was given at 3 h after the onset of reperfusion and the second half dose at 8 h reperfusion in the tMCAO model.
# At 24 h post-reperfusion, mice were anesthetized with 5% isoflurane and then decapitated. Coronal brain slices (2 mm thickness) were stained with 1% 2,3,5-triphenyltetrazolium chloridemonohydrate (TTC) for 20-30 min and brain slices were scanned (Begum G et al., 2015). Ischemic lesions were traced in each slice in a blinded manner, and the total volume of infarction was calculated with correction for edema, as described by Swanson et al., 1990 using ImageJ software. Infarct areas were summed across all slices and multiplied by slice thickness to yield total infarct volume (mm^3). Brain swelling was determined with the following formula. For tMCAO: swelling (% contralateral hemispheric volume)=[(ipsilateral hemispheric volume)−(contralateral hemispheric volume)]/(contralateral hemispheric volume)×100, as described before (Guo Q G et al., 2009; Sunghee Cho et al., 2005).
# [2] = tested on: transient focal cerebral ischemia (tMCAO) in mice; assay: Body weight and survival 1-14 days after tMCAO; format: in vivo, mouse
# Protocol: as §1, §2, §3
compound,measurement,setting,value
CCCCNc1cc(C(=O)OCCN(C)C)cc(S(N)(=O)=O)c1Oc1ccccc1 [STS5],infarct volume in female mice,"[1]; female mice only, STS5 13, STS66 12 mg/kg/day",46.9±5.0 mm^3
same,hemispheric edema (hemisphere swelling),"[1]; normotensive C57BL/6j mice, half dose at 3 h and 8 h reperfusion, BMT 10, STS5 13, STS66 12 mg/kg/day, mean±SD",12.6±4.5%
same,infarct volume,"[1]; normotensive C57BL/6j mice, male and female combined, half dose at 3 h and 8 h reperfusion, BMT 10, STS5 13, STS66 12 mg/kg/day, mean±SD",49.5±20.6 mm^3
same,body weight changes,"[2]; 1-14 days after tMCAO, versus DMSO Veh control",no differences in the body weight changes
same,mortality rate,"[2]; between 1-14 days post tMCAO, BMT 10, STS5 13, STS66 12 mg/kg/day i.p.",~66.7%
